What was measured:
[1] = Thermal stability to iodine loss during the deprotection reaction; format: physicochemical; details: during the deprotection reaction (6M HCl, 100° C., 10 minutes), compared to MIBG
Protocol: The residue in the reactor vial was dissolved in 200 μl of 6M HCl, and heated at 100° C. for 10 minutes. The solution was allowed to cool for one minute and neutralized with 120 μl of 10M NaOH. A reverse phase (C18) sep pak was rinsed with ethanol (10 mL) and water (10 mL) and blown dry. The neutralized solution ([…]) was passed through the sep pak and the sep pak was rinsed with 2 mL of water (to elute any remaining salts) and blown dry. Ethanol (0.8 mL) was passed through the sep pak to elute the radiolabeled benzylguanidine derivative. Ethanol was removed using a stream of nitrogen before the material was purified by HPLC.
124I-2,4-difluoro-3-iodobenzylguanidine was prepared in 80±6% radiochemical yield (n=4) at the 1-2 mCi scale using the procedure outlined in Example 26. Following isolation, the product was >99% chemically and radiochemically pure, as assayed by HPLC.

[2] = Imaging (PET/CT) and biodistribution study of 124I-MIBG prepared using two methods; format: in vivo; details: male Sprague-Dawley rats, single intravenous dose, PET/CT scans at 1, 4, and 24 hours post injection; diaryliodonium salt precursor preparation vs conventional method (stannylated resin precursor)
Protocol: To determine whether the method of preparation of MIBG affected the biodistribution of the compound, high specific activity ^124I-MIBG was prepared using the diaryliodonium salt method (Example 27) and the conventional stannylated resin precursor; these compounds were imaged in rodent models.
Eight male Sprague-Dawley rats were used for the study. Upon arrival at the laboratory, each animal was inspected, uniquely identified with the animal number written on their tails, and weighed. The animals were judged to be in good health and were immediately placed in acclimation. Animals were between 6-14 weeks of age and weighed 440.5±36.4 g.
After a single intravenous dose of ^124I-MIBG prepared by diaryliodonium salt precursor, or ^124I-MIBG prepared with conventional method, Sprague-Dawley rats were given PET/CT scans at 1, 4, and 24 hours post injection of radiotracer. Biodistribution analysis was performed to quantify the amount of uptake in each animal's heart, liver, kidneys, thyroid, quadriceps muscle, and whole body as a function of time. Data is presented in units of μCi, μCi/mm3, % ID, and % ID/g. The radiochemical purity of all compounds as assessed by HPLC was >97% within an hour of administration.

SMILES	thermal stability to iodine loss [1]	biodistribution (uptake in heart, liver, kidneys, thyroid, quadriceps muscle, and whole body as a function of time) [2]
N=C(N)NCc1ccc(F)c([124I])c1F [124I-2,4-difluoro-3-iodobenzylguanidine, ^124I-2,4-difluoro-3-iodobenzylguanidine]	greater thermal stability to iodine loss	–
NC(N)=NCc1cccc([124I])c1 [^124I-MIBG]	–	no noted qualitative or quantitative difference

Reference: patent US10053423B2, “Radioiodinated compounds” (NUtech Ventures, priority 2014, dated 2018)
